Active and inactive are the calls of the source.
Key:
Type in all cases: functional
HL-60(TB) = experiment: Antiproliferative activity against human HL-60(TB) cells at 10 uM assessed as cell growth inhibition relative to control
SF-539 = experiment: Antiproliferative activity against human SF539 cells at 10 uM assessed as cell growth inhibition relative to control
COLO 205 = experiment: Antiproliferative activity against human COLO205 cells at 10 uM assessed as cell growth inhibition relative to control
SW-620 = experiment: Antiproliferative activity against human SW620 cells at 10 uM assessed as cell growth inhibition relative to control
EKVX = experiment: Antiproliferative activity against human EKVX cells at 10 uM assessed as cell growth inhibition relative to control
UACC-257 = experiment: Antiproliferative activity against human UACC257 cells at 10 uM assessed as cell growth inhibition relative to control
HOP-62 = experiment: Antiproliferative activity against human HOP62 cells at 10 uM assessed as cell growth inhibition relative to control
786-0 = experiment: Antiproliferative activity against human 786-0 cells at 10 uM assessed as cell growth inhibition relative to control
OVCAR-4 = experiment: Antiproliferative activity against human OVCAR4 cells at 10 uM assessed as cell growth inhibition relative to control
OVCAR-5 = experiment: Antiproliferative activity against human OVCAR5 cells at 10 uM assessed as cell growth inhibition relative to control
CCRF-CEM = experiment: Antiproliferative activity against human CCRF-CEM cells at 10 uM assessed as cell growth inhibition relative to control
RPMI8266 = experiment: Antiproliferative activity against human […] cells at 10 uM assessed as cell growth inhibition relative to control
ACHN = experiment: Antiproliferative activity against human ACHN cells at 10 uM assessed as cell growth inhibition relative to control
SF-295 = experiment: Antiproliferative activity against human SF295 cells at 10 uM assessed as cell growth inhibition relative to control
NCI-H226 = experiment: Antiproliferative activity against human NCI-H226 cells at 10 uM assessed as cell growth inhibition relative to control
UO-31 = experiment: Antiproliferative activity against human UO31 cells at 10 uM assessed as cell growth inhibition relative to control
SK-MEL-28 = experiment: Antiproliferative activity against human SK-MEL-28 cells at 10 uM assessed as cell growth inhibition relative to control
PC-3 = experiment: Antiproliferative activity against human PC3 cells at 10 uM assessed as cell growth inhibition relative to control
OVCAR-3 = experiment: Antiproliferative activity against human OVCAR-3 cells at 10 uM assessed as cell growth inhibition relative to control
HCT-116 = experiment: Antiproliferative activity against human HCT116 cells at 10 uM assessed as cell growth inhibition relative to control
SK-MEL-5 = experiment: Antiproliferative activity against human SK-MEL-5 cells at 10 uM assessed as cell growth inhibition relative to control
SNB-19 = experiment: Antiproliferative activity against human SNB19 cells at 10 uM assessed as cell growth inhibition relative to control
A549 = experiment: Antiproliferative activity against human A549 cells at 10 uM assessed as cell growth inhibition relative to control
SF-268 = experiment: Antiproliferative activity against human SF268 cells at 10 uM assessed as cell growth inhibition relative to control
U-251 = experiment: Antiproliferative activity against human U251 cells at 10 uM assessed as cell growth inhibition relative to control
HOP-92 = experiment: Antiproliferative activity against human HOP92 cells at 10 uM assessed as cell growth inhibition relative to control
KM12 = experiment: Antiproliferative activity against human KM12 cells at 10 uM assessed as cell growth inhibition relative to control
NCI-H522 = experiment: Antiproliferative activity against human NCI-H522 cells at 10 uM assessed as cell growth inhibition relative to control
NCI-H460 = experiment: Antiproliferative activity against human NCI-H460 cells at 10 uM assessed as cell growth inhibition relative to control
Malme-3M = experiment: Antiproliferative activity against human MALME-3M cells at 10 uM assessed as cell growth inhibition relative to control
NCI-H23 = experiment: Antiproliferative activity against human NCI-H23 cells at 10 uM assessed as cell growth inhibition relative to control
RXF 393 = experiment: Antiproliferative activity against human RXF393 cells at 10 uM assessed as cell growth inhibition relative to control
BT-549 = experiment: Antiproliferative activity against human BT549 cells at 10 uM assessed as cell growth inhibition relative to control
SN12C = experiment: Antiproliferative activity against human SN12C cells at 10 uM assessed as cell growth inhibition relative to control
MOLT-4 = experiment: Antiproliferative activity against human MOLT4 cells at 10 uM assessed as cell growth inhibition relative to control
DU-145 = experiment: Antiproliferative activity against human DU145 cells at 10 uM assessed as cell growth inhibition relative to control
MCF7 = experiment: Antiproliferative activity against human MCF7 cells at 10 uM assessed as cell growth inhibition relative to control
HT-29 = experiment: Antiproliferative activity against human HT-29 cells at 10 uM assessed as cell growth inhibition relative to control
K562 = experiment: Antiproliferative activity against human K562 cells at 10 uM assessed as cell growth inhibition relative to control
M14 = experiment: Antiproliferative activity against human M14 cells at 10 uM assessed as cell growth inhibition relative to control
MDA-MB-468 = experiment: Antiproliferative activity against human MDA-MB-468 cells at 10 uM assessed as cell growth inhibition relative to control
NCI-H322M = experiment: Antiproliferative activity against human NCI-H322M cells at 10 uM assessed as cell growth inhibition relative to control
SNB-75 = experiment: Antiproliferative activity against human SNB75 cells at 10 uM assessed as cell growth inhibition relative to control
A498 = experiment: Antiproliferative activity against human A498 cells at 10 uM assessed as cell growth inhibition relative to control
TK-10 = experiment: Antiproliferative activity against human TK10 cells at 10 uM assessed as cell growth inhibition relative to control
MDA-MB-231 = experiment: Antiproliferative activity against human MDA-MB-231 cells at 10 uM assessed as cell growth inhibition relative to control
SK-MEL-2 = experiment: Antiproliferative activity against human SK-MEL-2 cells at 10 uM assessed as cell growth inhibition relative to control
CAKI-1 = experiment: Antiproliferative activity against human Caki1 cells at 10 uM assessed as cell growth inhibition relative to control
HCC 2998 = experiment: Antiproliferative activity against human HCC2998 cells at 10 uM assessed as cell growth inhibition relative to control
Hs-578T = experiment: Antiproliferative activity against human Hs 578T cells at 10 uM assessed as cell growth inhibition relative to control
SK-OV-3 = experiment: Antiproliferative activity against human SKOV3 cells at 10 uM assessed as cell growth inhibition relative to control
UACC-62 = experiment: Antiproliferative activity against human UACC62 cells at 10 uM assessed as cell growth inhibition relative to control
IGROV-1 = experiment: Antiproliferative activity against human IGROV1 cells at 10 uM assessed as cell growth inhibition relative to control
LOX IMVI = experiment: Antiproliferative activity against human LOXIMVI cells at 10 uM assessed as cell growth inhibition relative to control
T47D = experiment: Antiproliferative activity against human T47D cells at 10 uM assessed as cell growth inhibition relative to control
HCT-15 = experiment: Antiproliferative activity against human HCT15 cells at 10 uM assessed as cell growth inhibition relative to control
OVCAR-8 = experiment: Antiproliferative activity against human OVCAR8 cells at 10 uM assessed as cell growth inhibition relative to control

Measured: growth inhibition (GI)

[N-]=[N+]=NC[C@H]1O[C@@H](n2cnc3c(NC(=O)Nc4ccccc4)ncnc32)[C@@H]2OC(=O)C[C@@H]21
inactive: all assays above

CNC(=O)NC[C@H]1O[C@@H](n2cnc3c(NC(=O)Nc4ccccc4)ncnc32)[C@@H]2OC(=O)C[C@@H]21
inactive: all assays above

— ChEMBL document CHEMBL1154382, “Preliminary SAR analysis of novel antiproliferative N(6),5'-bis-ureidoadenosine derivatives” (2009)
